Counter-ions that a name gives are not always drawn.
Key:
Assay type in all cases: cell-based, human
[1] = system: PFK1-mEGFP clustering in HeLa-T-PFK1G cells; test: qHTS PFK1-mEGFP clustering assay with the LOKI library; conditions: for Curve class: LOKI screen; for PFK1-mEGFP clustering when the assay was repeated: repeat of the LOKI assay, FIGS. 8A-8C
Method: HeLa-T-PFK1G cells were plated in 1536-well black, clear bottom, low base microwell plates (Aurora Microplates, Inc.) at a density of 400 cells/well in DMEM supplemented with 10% dialyzed FBS, 1% Pen-Strep, and 1 μg/mL doxycycline. The cells were incubated at 37° C., 5% CO2, and 95% humidity for 16 hours. A qHTS assay was scaled to 4 μL volumes in 1536-well format in a semi-automated manner.
Second, the qHTS assay was carried out with the LOKI library (10 mM, 11-point 1:3 intra-plate titration). Again, 23 nL of compounds were transferred by a pintool (Kalypsys) in the final concentration range of 974 pM to 57.5 μM along with DMSO. […] The cells were then incubated overnight with small molecules. Approximately 24 hours later, the cells were fixed with 3.5% paraformaldehyde and nuclei were stained using a 1:1000 dilution of Hoechst dye for ˜20 minutes. Cells were washed and imaged with an INCell Analyzer 2000 or INCell Analyzer 2200 (GE Healthcare Life Sciences) as described above.
Images were processed in the GE Workstation software and analyzed with a multitarget analysis of fluorescence. Top-hat segmentation of the DAPI channel was used to identify nuclei with a minimum area of 100 μm^2 and sensitivity of 40 settings. Multiscale top-hat segmentation of the FITC channel was used to identify cells with a characteristic area of 200 μm^2 and sensitivity of 70 settings. This allowed for the identification of fluorescent cells from the background or dead cells. Following cell segmentation, the same FITC channel was analyzed with multiscale top-hat segmentation to identify PFK1-mEGFP clusters with a size range of 0.2-2 μm^2, number scales of 1, process parameters of 1 pixel, sensitivity of 40, and inclusions in the cytoplasm. A filter of object area, that is, the area of PFK1-mEGFP clusters, below 30 μm^2 and an advanced sensitivity range of 1.5, was also applied. A decision tree thresholding was developed to identify cells with PFK1 clusters with three nodes. The start node required a cell intensity above 110 GL, the second node required a PFK1 cluster count above 1, and the third node required the total area of the PFK1 cluster above 5 μm^2. Ultimately, this allowed for the identification of cluster-positive cells over non-clustering cells. The total number of cells with a total area of PFK1 clusters above 5 μm^2 (most stringent parameter) and the total number of cells with any PFK1 clusters were calculated with the above algorithm and normalized by plate to the 57.5 μM kenpaullone intra-plate control as previously described (Inglese et al., 2006). Assay effectiveness including S:N (the signal to noise ratio) and Z′ (the index of assay quality (Zhang et al., 1999)) were calculated for both parameters using the same respective control. Both parameters were normalized to the average signal of DMSO (vehicle)-treated wells as a zero percent neutral control and the average signal of 57.5 μM kenpaullone-treated wells as maximum PFK1-mEGFP clustering. Cell count based on the number of nuclei was used as a parameter of cytotoxicity, which was also normalized to the average signal of DMSO-treated wells as a zero percent neutral control and the average signal of 57.5 μM […]-treated wells as maximum PFK1-mEGFP clustering. The respective normalized data from each assay plate was corrected using DMSO only treated assay plates at the beginning and end of each library screen. In-house software (http://ncgc.nih.gov/pub/openhts/curvefit/) was used to fit the resulting intra-plate titration data to the standard Hill equation and concentration-response curves were classified by a titration curve as previously described (Southall et al.). Curve fits assignments of class 1.1, 1.2, 2.1 and 2.2s were considered active (i.e., promotion of the PFK1-mEGFP clusters) and visually confirmed.

[2] = system: PFK1-mEGFP clustering in HeLa-T-PFK1G cells; test: High-resolution fluorescence microscopy of PFK1-mEGFP clustering
Method: A day before imaging, HeLa-T-PFK1G cells in RPMI1640 supplemented with 10% dialyzed FBS, 200 ug/ml G418 sulfate and 100 ug/ml hygromycin B, were plated in the presence of 1 μg/mL doxycycline to induce the expression of PFK1-mEGFP. On the day of imaging, the cells were washed three times with an imaging solution (20 mM HEPES (pH 7.4), 135 mM NaCl, 5 mM KCl, 1 mM MgCl2, 1.8 mM CaCl2) and 5.6 mM glucose) and allowed to adjust to ambient temperature for ˜45-60 minutes prior to small molecule treatments. Meanwhile, transiently transfected HeLa cells were imaged after being washed with the imaging solution after ˜24 hours following transfection. The cells were then treated with small molecules and incubated at 37° C. for the given time. All samples were imaged at ambient temperature (˜25° C.) with a 60×1.45 NA objective lens (Nikon CFI Plan Apo TIRF) using a Photometrics CoolSnap EZ monochrome CCD camera on a Nikon Eclipse Ti-inverted C2 confocal microscope.
Epifluorescence imaging was carried out using a set of Z488/10-FC cleanup, HC TIRF Dichroic and 525/50-HC emission filter from Chroma Technology. Images were acquired using NIS Elements (Nikon) and images were analyzed using an ImageJ freeware (National Institutes of Health).
Next, the 8 compounds were assessed for their ability to induce PFK1-mEGFP clustering under high-resolution fluorescence microscopy. HeLa-T-PFK1G cells were treated with 57.5 μM for 5 hours (FIGS. 2A and 2B) and 10 μM for 25 hours (FIGS. 2C and 2D). […] Quantitatively, SU9516 induced medium- and large-sized PFK1-mEGFP clustering in 26.6±12% of the cells at 57.5 μM for 5 hours, and in 40.0±16% of cells at 10 μM for 25 hours (see, e.g., FIGS. 2B and 2D, respectively).

[3] = system: cell cycle progression of HeLa-T-PFK1G cells; test: Cell cycle analysis by propidium iodide staining and flow cytometry; conditions: 10 μM, 24 hours
Method: FIG. 7A illustrates the effect of SU9516 on the cell cycle progression of HeLa-T-PFK1G cells. Cells received no small molecules or were treated with DMSO or 10 uM SU9516 and incubated for 24 hours. Then, cells were assessed for cell cycle progression by propidium iodide staining. The changes of the average percentage of cells in each cell cycle following incubation with an indicated compound are shown. Error bars represent the standard deviations of at least three trials and statistical significance was determined using student's two-tailed t test. HeLa-T-PFK1G cells were plated in 6-well plates for a confluency of 70-90% in RPMI1640 supplemented with 10% dialyzed FBS in the presence of 1 ug/mL doxycycline. The following day, the cells were treated with SU9516 or DMSO for 24 hours. The cells were then harvested and analyzed for the cell cycle progression as previously described (Crowley et al., 2016). Briefly, hundreds of thousands of cells were removed from 6-well plates using trypsin, washed with 1×PBS (pH 7.4), resuspended in ice-cold PBS and fixed with ice-cold methanol for 20 minutes at 4° C. The cells were then washed and resuspended in the cell cycle buffer, which contains 30 ug/mL propidium iodide and 100 μg/mL RNase A (Thermo Cat # EN0531) in 1×PBS (pH 7.4). After being incubated for at least 45 minutes, flow cytometry was performed with a CyAn ADP (Beckman Coulter) running Summit V 4.00, equipped with a 488 nm laser line and 530/40 and 613/20 emission filters. Using FlowJo (FlowJo, LLC), cell populations were gated based on the expression of PFK1-mEGFP in cells as well as their size and granularity. The cell cycle progression was then assessed by the Dean-Jett-Fox analysis using Cell Cycle platform available in FlowJo (Fox, 1980).

[4] = system: transiently expressed PFK1-mEGFP in HeLa cells; test: PFK1-mEGFP clustering in transiently transfected wild-type HeLa cells; conditions: 57.5 μM, 5 hours
Method: A day before transient transfection, wild-type HeLa cells were plated on either glass-bottomed 35 mm petri dishes (MatTek) or 8-well chambers (LabTek) in RPMI 1640 supplemented with 10% dialyzed FBS without antibiotics. The following day, HeLa cells were transfected with PFK1-mEGFP using Lipofectamine 2000 (Invitrogen Cat#11668019) in Opti-MEM I (ThermoFisher Cat#11058-021) and allowed to incubate in a HeraCell CO2 incubator (37° C., 5% CO2, and 95% humidity). Approximately 5 hours later, the medium was exchanged for fresh growth medium and incubated overnight in the CO2 incubator.
A day before imaging, HeLa-T-PFK1G cells in RPMI1640 supplemented with 10% dialyzed FBS, 200 ug/ml G418 sulfate and 100 ug/ml hygromycin B, were plated in the presence of 1 μg/mL doxycycline to induce the expression of PFK1-mEGFP. On the day of imaging, the cells were washed three times with an imaging solution (20 mM HEPES (pH 7.4), 135 mM NaCl, 5 mM KCl, 1 mM MgCl2, 1.8 mM CaCl2) and 5.6 mM glucose) and allowed to adjust to ambient temperature for ˜45-60 minutes prior to small molecule treatments. […]
As a control, PFK1-mEGFP was transiently transfected into wild-type HeLa cells and treated with SU9516. After 5 hours of treatment with 57.5 μM of SU9516, the promotion of medium- and large-sized clusters from small-sized clusters at single-cell levels were monitored (FIG. 4).

[5] = system: PFK1-mEGFP clustering in HeLa-T-PFK1G cells; test: Resveratrol-induced clustering of PFK1-mEGFP (positive control, assay development); conditions: 200-250 μM, three hours
Method: Cells were treated with 200-250 μM resveratrol for three hours. Scale bar, 10 μm.

[6] = Table 5, CDK inhibitors that did not induce PFK1-mEGFP clustering
[7] = Table 4, inhibitors of the off-targets of SU9516
[8] = 10 μM, 24 hr, HeLa-T-PFK1G cells

SMILES: CN1CCC(c2c(O)cc(O)c3c(=O)cc(-c4ccccc4Cl)oc23)C(O)C1 (stereo in doubt) [NCGC00250401-01]
- Curve class [1, 6]: 4

SMILES: Cn1cnc2c(NCc3ccccc3)nc(NCCO)nc21 [NCGC00015763-01]
- Curve class [1, 6]: 4

SMILES: O=C(NC1CCNCC1)c1[nH]ncc1NC(=O)c1c(Cl)cccc1Cl [NCGC00263091-01]
- Curve class [1, 6]: −1.3

SMILES: CC(=O)c1c(C)c2cnc(Nc3ccc(N4CCNCC4)cn3)nc2n(C2CCCC2)c1=O [NCGC00263129-01, Palbociclib]
- Curve class [1, 7]: 2.1

SMILES: Cn1c(=O)c(F)c(Nc2ccc(I)cc2F)c2c(=O)n(C[C@@H](O)CO)cnc21 [NCGC00263187-01]
- Curve class [1, 6]: −2.4

SMILES: CCc1ccc(NC(=O)c2[nH]c(C)c(C(C)=O)c2C)cc1S(=O)(=O)Nc1cccc(C#N)c1 [NCGC00345632-01]
- Curve class [1, 6]: −2.1

SMILES: CCS(=O)(=O)Nc1ccc2c(c1)/C(=C(/Nc1ccc(CN3CCCCC3)cc1)c1ccccc1)C(=O)N2 [NCGC00346542-01, Hesperadin]
- Curve class [1, 7]: 2.1

SMILES: CC(C)c1cnn2c(NCc3ccccc3)cc(NCCCCCCN)nc12 [NCGC00346553-01, BS-181]
- Curve class [1, 7]: 2.1
- PFK1-mEGFP clustering when the assay was repeated [1]: did not promote PFK1-mEGFP clustering

SMILES: CC(=O)NCC(=O)N1[C@H]2CC[C@H]1c1cc(Nc3ncc(C(F)(F)F)c(NC4CCC4)n3)ccc12 [NCGC00346652-01, PF-03814735]
- Curve class [1, 7]: 2.1
- PFK1-mEGFP clustering when the assay was repeated [1]: induced PFK1-mEGFP clustering

SMILES: CC(O)(C#Cc1ccc2c(c1)N(c1nc(N)ncc1Cl)CC2)c1nccs1 (stereo not drawn) [NCGC00346747-02]
- Curve class ([1]; PFK1-mEGFP clustering vs log compound concentration, Table 3 hits): 2.1

SMILES: CC(=O)OC1C(C)OC(Oc2c(-c3ccc(O)cc3)oc3cc(O)cc(O)c3c2=O)C(O)C1OC(C)=O (stereo not drawn) [NCGC00346893-01, SL-0101-1]
- Curve class [1, 7]: 2.1
- Curve class [1, 6]: 4
- PFK1-mEGFP clustering when the assay was repeated [1]: did not promote PFK1-mEGFP clustering

SMILES: C=CCc1cccc(/C=N/NC(=O)CN2CCN(Cc3ccccc3)CC2)c1O [PAC-1]
- cell morphology observed [2, 8]: vacuole-type artifact

SMILES: COc1ccc2c(c1)/C(=C/c1cnc[nH]1)C(=O)N2 [SU9516, 3-[1-(3H-Imidazol-4-yl)-meth-(Z)-ylidene]-5-methoxy-1,3-dihydro-indol-2-one]
- population of cells in the G2 phase ([3]; 18.9%±[…] without compound): 45.6%±1.9%
- population of cells in the S phase ([3]; 21.5%±7.2% without compound): 4.2%±2.4%
- population of cells in the G1 phase ([3]; 54.7%±5.7% without compound, no significant change): 48.4%±2.7%
- promotion of medium- and large-sized PFK1-mEGFP clusters [4]: capable of promoting PFK1-mEGFP clusters
- percent of cells with medium- and large-sized PFK1-mEGFP clustering ([2]; 10 μM for 25 hours): 40.0±16%
- percent of cells with medium- and large-sized PFK1-mEGFP clustering ([2]; 57.5 μM for 5 hours): 26.6±12%
- ability to induce PFK1-mEGFP clustering under high-resolution fluorescence microscopy ([2]; 57.5 μM for 5 hours and 10 μM for 25 hours): capable of inducing PFK1-mEGFP clusters
- EC50 ([2]; Homo sapiens, titration for 25 hours, HeLa-T-PFK1G cells, read-out: EC50 with respect to PFK1-mEGFP clustering): 6.8 µM

SMILES: Clc1ccc(C(c2ccc(Cl)cc2)n2cc[n+](CC(OCc3ccc(Cl)cc3Cl)c3ccc(Cl)cc3Cl)c2)cc1 (stereo not drawn) [calmidazolium chloride, Calmidazolium chloride]
- cell morphology observed [2, 8]: vacuole-type artifact

SMILES: CN1CCC[C@@H]1CCO[C@](C)(c1ccccc1)c1ccc(Cl)cc1 [clemastine fumarate, Clemastine fumarate]
- cell morphology observed ([2]; 57.5 μM, 6 hr, HeLa-T-PFK1G cells): protein localization and cell death

SMILES: Oc1ccc(C=Cc2cc(O)cc(O)c2)cc1 [resveratrol]
- percent of cells exhibiting medium- or large-sized clusters in the cytoplasm [5]: 80-90%
